Experimental data as given in paper PMC7026418, “The kinase polypharmacology landscape of clinical PARP inhibitors” (Scientific Reports, 2020).
Positions count from the first letter of the chain named. Where two headings read alike, the source gives them in different places. One block for each compound: values may come before it.

What was measured:
Experiment in all cases: biochemical
Parameters in all cases: DiscoveRx KINOMEscan active site-directed competition binding; percent of control kinase bound to immobilised ligand
CSK = CSK (Homo sapiens, UniProt P41240)
DCAMKL1 = target: T1, DCAMKL1 (Homo sapiens, UniProt O15075)
T1 construct: gene DCLK1
T1 sequence (O15075 1-740): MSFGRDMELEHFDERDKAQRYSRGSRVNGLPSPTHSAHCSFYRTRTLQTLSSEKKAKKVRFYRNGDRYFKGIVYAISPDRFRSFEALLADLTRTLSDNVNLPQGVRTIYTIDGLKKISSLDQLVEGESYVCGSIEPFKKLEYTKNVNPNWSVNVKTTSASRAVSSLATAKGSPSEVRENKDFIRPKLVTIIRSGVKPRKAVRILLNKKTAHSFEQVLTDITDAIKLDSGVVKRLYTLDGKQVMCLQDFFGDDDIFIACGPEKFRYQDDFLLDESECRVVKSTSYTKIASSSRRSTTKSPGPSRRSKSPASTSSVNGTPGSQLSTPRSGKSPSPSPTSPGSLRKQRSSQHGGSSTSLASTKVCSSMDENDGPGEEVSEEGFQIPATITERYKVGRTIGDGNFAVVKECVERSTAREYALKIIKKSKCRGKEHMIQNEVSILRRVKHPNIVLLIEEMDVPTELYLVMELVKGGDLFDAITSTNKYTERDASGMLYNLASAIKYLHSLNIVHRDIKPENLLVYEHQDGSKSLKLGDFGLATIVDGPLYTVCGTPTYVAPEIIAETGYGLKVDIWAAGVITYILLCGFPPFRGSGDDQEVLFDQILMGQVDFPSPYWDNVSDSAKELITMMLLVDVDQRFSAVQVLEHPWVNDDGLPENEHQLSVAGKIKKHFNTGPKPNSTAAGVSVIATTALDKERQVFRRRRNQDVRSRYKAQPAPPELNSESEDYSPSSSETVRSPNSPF

FGFR3 = FGFR3 (Homo sapiens, UniProt P22607)
FGFR3, sequence (P22607 whole entry): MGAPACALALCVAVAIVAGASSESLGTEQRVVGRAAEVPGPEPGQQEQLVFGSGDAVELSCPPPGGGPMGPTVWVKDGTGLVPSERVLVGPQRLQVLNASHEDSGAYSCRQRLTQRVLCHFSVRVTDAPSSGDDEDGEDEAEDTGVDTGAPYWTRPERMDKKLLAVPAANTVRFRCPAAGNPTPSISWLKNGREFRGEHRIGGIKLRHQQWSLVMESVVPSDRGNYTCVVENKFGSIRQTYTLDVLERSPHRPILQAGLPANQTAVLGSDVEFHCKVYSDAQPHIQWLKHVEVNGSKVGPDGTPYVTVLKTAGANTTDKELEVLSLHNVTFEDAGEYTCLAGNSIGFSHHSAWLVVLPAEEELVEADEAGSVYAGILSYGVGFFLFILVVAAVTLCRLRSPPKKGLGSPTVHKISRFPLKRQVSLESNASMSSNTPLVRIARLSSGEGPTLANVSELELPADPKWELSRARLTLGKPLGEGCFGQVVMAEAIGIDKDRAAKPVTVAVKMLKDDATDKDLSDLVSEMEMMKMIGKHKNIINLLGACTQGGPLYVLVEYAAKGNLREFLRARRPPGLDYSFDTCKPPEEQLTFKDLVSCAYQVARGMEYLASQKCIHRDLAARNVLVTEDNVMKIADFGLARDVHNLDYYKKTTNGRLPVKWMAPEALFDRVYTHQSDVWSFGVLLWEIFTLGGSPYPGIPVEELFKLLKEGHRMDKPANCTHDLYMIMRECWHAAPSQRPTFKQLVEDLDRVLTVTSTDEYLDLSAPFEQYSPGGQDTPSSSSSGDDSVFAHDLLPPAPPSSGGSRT

FYN = FYN (Homo sapiens, UniProt P06241)
FYN, sequence (P06241 whole entry): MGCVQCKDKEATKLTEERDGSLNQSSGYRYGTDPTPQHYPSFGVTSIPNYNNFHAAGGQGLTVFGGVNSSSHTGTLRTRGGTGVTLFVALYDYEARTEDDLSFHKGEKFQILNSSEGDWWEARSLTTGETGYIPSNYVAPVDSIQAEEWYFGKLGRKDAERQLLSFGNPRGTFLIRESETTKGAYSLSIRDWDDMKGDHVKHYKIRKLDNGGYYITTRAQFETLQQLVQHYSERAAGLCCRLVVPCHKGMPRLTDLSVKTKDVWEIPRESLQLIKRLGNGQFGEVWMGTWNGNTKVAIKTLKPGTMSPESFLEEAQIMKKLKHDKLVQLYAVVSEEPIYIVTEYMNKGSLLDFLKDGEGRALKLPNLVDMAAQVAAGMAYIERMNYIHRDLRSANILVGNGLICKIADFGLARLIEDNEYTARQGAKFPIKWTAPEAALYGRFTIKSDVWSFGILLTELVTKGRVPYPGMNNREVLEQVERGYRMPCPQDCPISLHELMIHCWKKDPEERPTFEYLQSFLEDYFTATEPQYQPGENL

FLT3(ITD,D835V) = target: T2, FLT3(ITD,D835V) (Homo sapiens, UniProt P36888, D835V/ITD)
T2 sequence (P36888 564-993 D835V): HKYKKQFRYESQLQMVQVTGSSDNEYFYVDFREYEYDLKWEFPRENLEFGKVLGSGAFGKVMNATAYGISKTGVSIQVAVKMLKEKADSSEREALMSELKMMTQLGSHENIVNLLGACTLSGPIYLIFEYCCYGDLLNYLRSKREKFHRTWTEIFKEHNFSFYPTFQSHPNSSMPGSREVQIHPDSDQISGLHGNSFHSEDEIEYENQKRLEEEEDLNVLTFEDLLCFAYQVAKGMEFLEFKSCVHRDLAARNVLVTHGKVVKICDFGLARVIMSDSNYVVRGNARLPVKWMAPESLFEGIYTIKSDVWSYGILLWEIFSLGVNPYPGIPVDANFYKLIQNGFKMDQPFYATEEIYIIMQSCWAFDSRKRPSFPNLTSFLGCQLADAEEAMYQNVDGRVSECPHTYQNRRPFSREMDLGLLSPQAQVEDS

FLT3(ITD) = target: T3, FLT3(ITD) (Homo sapiens, UniProt P36888, ITD)
T3 sequence (P36888 564-993): T2 sequence (P36888 564-993 D835V) with V272D

[1] = read-out: Niraparib (MK-4827) / %Ctrl @ 10000nM
[2] = read-out: Rucaparib / %Ctrl @ 10000nM, binding competition, % of control
[3] = read-out: Olaparib / %Ctrl @ 10000nM
[4] = read-out: Talazoparib (BMN 673) / %Ctrl @ 10000nM

Structure (SMILES): NC(=O)c1cccc2cn(-c3ccc([C@@H]4CCCNC4)cc3)nc12 [Niraparib]
percent of control binding at 10 µM (CSK; [1]): 90%
percent of control binding at 10 µM (DCAMKL1; [1]): 89%
percent of control binding at 10 µM (FGFR3; [1]): 94%
percent of control binding at 10 µM (FYN; [1]): 88%
percent of control binding at 10 µM (FLT3(ITD,D835V); [1]): 36%
percent of control binding at 10 µM (FLT3(ITD); [1]): 92%

percent of control binding at 10 µM (CSK; [2]): 100%
percent of control binding at 10 µM (DCAMKL1; [2]): 78%
percent of control binding at 10 µM (FGFR3; [2]): 99%
percent of control binding at 10 µM (FYN; [2]): 100%
Rucaparib / %Ctrl @ 10000nM (FLT3(ITD,D835V); binding competition, % of control): 8.1%
Structure (SMILES): CNCc1ccc(-c2[nH]c3cc(F)cc4c3c2CCNC4=O)cc1 [Rucaparib]

percent of control binding at 10 µM (CSK; [3]): 99%
percent of control binding at 10 µM (DCAMKL1; [3]): 100%
percent of control binding at 10 µM (FGFR3; [3]): 100%
percent of control binding at 10 µM (FYN; [3]): 72%
percent of control binding at 10 µM (FLT3(ITD,D835V); [3]): 100%
percent of control binding at 10 µM (FLT3(ITD); [3]): 100%
Structure (SMILES): O=C(c1cc(Cc2n[nH]c(=O)c3ccccc23)ccc1F)N1CCN(C(=O)C2CC2)CC1 [Olaparib]

percent of control binding at 10 µM (CSK; [4]): 87%
percent of control binding at 10 µM (DCAMKL1; [4]): 90%
percent of control binding at 10 µM (FGFR3; [4]): 100%
percent of control binding at 10 µM (FYN; [4]): 100%
percent of control binding at 10 µM (FLT3(ITD,D835V); [4]): 100%
percent of control binding at 10 µM (FLT3(ITD); [4]): 100%
Structure (SMILES): Cn1ncnc1[C@H]1c2n[nH]c(=O)c3cc(F)cc(c23)N[C@@H]1c1ccc(F)cc1 [Talazoparib]
